For series [1] the following is noted: cited from earlier work.
The test system of the next series is rats. Kind of series: Object Recognition Task (episodic memory), 6 hour delay. As to conditions: for disruption of behavior: first four rats; for Recognition Score: vehicle 60%; for performance in the object recognition task: 6 h delay. Here is the method: It is based on rodents' natural preference for exploring novel objects over familiar objects. The experimental protocol is as follows:
The experiment takes place over a total of 4 days. Objects used for testing included square 60-mL clear glass tablet bottles with a black phenolic cap (“bottle”) or […] high, 1¼-inch interior diameter aluminum electrical metal tubing conduit couplings (“conduit”). On the first 3 days, the rat was placed into a test box for 15 minutes of habituation. On the fourth day, two identical copies of the same object were arranged in the box, one in each of the near corners about ½ inch from the walls—two bottles for half of the rats, two conduits for the other half. The rat was brought to the test room, placed in the middle of the box facing the center of the back wall, and allowed to explore the objects for a 3-minute information trial, after which it was returned to its home cage and to the housing room. After a specified delay, one copy of the original object (“familiar,” not the copy already encountered) and one copy of the other object (“novel”) were arranged in the near corners, with positions counterbalanced to avoid bias, and the rat was placed back in the box for a recognition trial. […] The result of scoring is the time spent with the novel object, expressed as a %-age number (the “Recognition Score”)
Normal rats spend more time exploring the novel object, indicating memory for the sample object. Increases in the length of the delay, however, reduce the rat's ability to distinguish between the two objects in the recognition trial. For the testing of cognition-enhancing agents, a delay or inter-trial interval (ITI) is typically chosen at which complete forgetting normally occurs (i.e. where the time spent exploring both the novel and familiar object is equal), as this allows for considerable room for improvement in performance.
Both drugs were administered by intraperitoneal (IP) injection.
To generate a dose-effect curve for galantamine, various doses of this compound were administered to rats by IP injection 30 minutes prior to the information trial and compared to vehicle (0.5%-methyl cellulose)-treated controls (FIG. 7A).

A further series deals with Long-Evans rats. The series can be described thus: 8 hour retention test on a twelve-arm radial maze (spatial memory). It is filed as in vivo, rat. As to conditions: 60 min prior to information session, vs vehicle (p<0.02). The protocol: 12-arm maze test: Behavioral testing was conducted by an experimenter who was blind to drug treatment. 12 Long-Evans rats trained to use a win-shift strategy were given an information trial. During the information trial, 5 of the 12 arms of the 12 arm maze were blocked so that rats were not able to consume food from those blocked arms but could obtain food from each of the 7 open arms. After this session rats were moved to their home cage and placed back in the animal holding room. […] A retroactive memory error is made when the rat enters an arm that was […] on the information trial.
. Physiological saline (NaCl) was used as vehicle. […]

Here are results for four molecules from patent US20050267077A1 (priority 2004, published 2005).

For the molecule `COc1ccc2c3c1O[C@H]1C[C@@H](O)C=C[C@@]31CCN(C)C2` [galantamine], in series [1], the half-life in humans was 5 to 6 h. Further, the disruption of behavior result in the series on rats (galantamine 3 mg/kg IP) is “gross disruption of behavior”. Also, the results for the “Recognition Score” value in the series with rats (galantamine alone 0.17 mg/kg) and in the series on rats (galantamine alone 0.3 mg/kg) were 55% and 62%, respectively.
With `COc1cc2c(cc1OC)C(=O)C(CC1CCN(Cc3ccccc3)CC1)C2` (racemic) [donepezil, (±)-2,3-dihydro-5,6-dimethoxy-2-[[1-(phenylmethyl)-4-piperidinyl]methyl]-1H-inden-1-one], the “retention test performance on the 12-arm maze” value with Long-Evans rats (3 mg/kg donepezil IP) is “improved performance”. Besides, the “performance in the object recognition task” value in the series with rats (donepezil 1.7 mg/kg IP, 30 min prior to information trial) was “significantly improved performance”. Also, the “adverse side effects in the rat” value in the series on rats (donepezil doses higher than 1.7 mg/kg IP) is “began to produce adverse side effects”.
With `CCCCP(=O)(O)CCCN` [ABPA, 3-aminopropyl-(n-butyl)-phosphinic acid], in the series on Long-Evans rats (150 mg/kg ABPA IP), the “retention test performance on the 12-arm maze” value is given as “improved performance”. Also, the “performance in the object recognition task” value is reported as “no beneficial effect” in the series with rats (ABPA 3 and 30 mg/kg IP, 30 min prior to information trial, vs saline); “significantly enhanced performance” in the series on rats (ABPA 10, 100, 170, and 300 mg/kg IP, 30 min prior to information trial, vs saline). In addition, the “Recognition Score” value is on record as 58% with rats (ABPA alone 3 mg/kg, Example 5 rivastigmine interaction study) and 58% in the series on rats (ABPA alone 3 mg/kg, Example 6 galantamine interaction study).
For `CCN(C)C(=O)Oc1cccc([C@H](C)N(C)C)c1` [rivastigmine], the half-life in humans entry in series [1] is “about 1.5 h”. The disruption of behavior entry in the series on rats (rivastigmine 1 mg/kg IP) was “grossly disrupted behavior”. Further, in the series on rats (rivastigmine 0.01, 0.017, 0.03, 0.056, 0.17 and 0.3 mg/kg IP, vs vehicle), the “effect on memory in the object recognition task” value is “no significant effect on memory”. The “performance in the object recognition task” value in the series on rats (rivastigmine 0.1 IP, 30 min prior, vs vehicle (p=0.056)) was “approached a significant improvement in performance”. The results for the “Recognition Score” value in the series on rats (rivastigmine alone 0.01 mg/kg) and with rats (rivastigmine alone 0.017 mg/kg) were 55% and 59%, respectively.
